# Assay results from article PMC7356228, “Alvaxanthone, a Thymidylate Synthase Inhibitor with Nematocidal and Tumoricidal Activities” (Molecules, 2020).
# Like-named read-outs stand apart in the source and are kept apart here.
# How the values were obtained:
# [1] = biological target: T1, mTS (Mus musculus, UniProt P07607); test: Inhibition of TS-catalyzed reaction (tritium release from [5-3H]dUMP); format: biochemical; conditions: 20 µM dUMP, 250 µM meTHF
# T1 construct: made in house
# Text: (§1) The recombinant human, rat, mouse, T. spiralis and C. elegans TS proteins were produced, purified and separated into phosphorylated and non-phosphorylated fraction, as previously described. TS activity was monitored, following tritium release from [5-^3H]dUMP, and its inhibition studied as earlier reported.
# [2] = biological target: T2, hTS (Homo sapiens, UniProt P04818); test: as above; format: biochemical
# T2 construct: made in house
# T2 sequence (P04818 whole entry): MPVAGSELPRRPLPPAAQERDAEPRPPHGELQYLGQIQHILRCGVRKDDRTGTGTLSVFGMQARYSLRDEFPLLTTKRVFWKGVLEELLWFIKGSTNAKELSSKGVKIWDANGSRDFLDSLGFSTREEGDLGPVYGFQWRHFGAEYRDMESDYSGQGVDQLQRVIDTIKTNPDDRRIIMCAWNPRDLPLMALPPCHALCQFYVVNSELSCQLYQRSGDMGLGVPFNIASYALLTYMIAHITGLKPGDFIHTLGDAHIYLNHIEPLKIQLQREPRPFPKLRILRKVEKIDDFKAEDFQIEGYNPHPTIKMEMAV
# Text: as §1
# [3] = test system: normal human gingival fibroblasts (HGF); parameters: method as in Hou et al. [41]; conditions: 24 h incubation; ref Hou et al. [41]; cited from earlier work
# [4] = test system: U-118 MG cells; test: Cell adhesion, crystal violet assay; format: cell-based, human; conditions: 48-h treatment
# Method: (§2) Cancer metastasis, resulting from an impairment of adhesion between cancer cells and the extracellular matrix may cause cell migration from a primary tumor into distant parts of an organism. The cristal violet assay was used to examine alvaxanthone and rheediaxanthone B ability to influence cellular adhesion.
# (§3) Figure 3 Influence of alvaxanthone or rheediaxanthone B on BJ, U-118 MG, and SCC-15 cells adhesion after 48-h treatment. The crystal violet assay was used. Results are medians of triplicate assays of three independent experiments expressed as a % of non-treated controls. The whiskers are lower (25%) and upper (75%) quartile ranges. * p ≤ 0.05, Kruskal–Wallis test (against non-treated control).
# (§4) Influence of selected compounds on cells was tested by performing the cytotoxicity (NR and XTT) assays, proliferation assay, cell adhesion assay, cell migration assay, determination of intracellular ATP level, and apoptosis assay as previously reported.
# [5] = test system: SCC-15 cells; test: Cell adhesion, crystal violet assay; format: cell-based, human; conditions: 48-h treatment
# Method: as §2, §3, §4
# [6] = test system: BJ cells; test: Cell adhesion, crystal violet assay; format: cell-based, human; conditions: 48-h treatment
# Method: as §2, §3, §4
# [7] = test system: human oral squamous carcinoma cells (HSC-2 cell line); parameters: method as in Hou et al. [41]; conditions: 24 h incubation; ref Hou et al. [41]; cited from earlier work
# [8] = test system: BJ normal human skin fibroblasts; test: Cytotoxicity, neutral red uptake (NR) assay; format: cell-based; conditions: Homo sapiens, Skin fibroblast; neutral red assay, BJ; read-out: IC50
# Method: (§5) Biological effect of alvaxanthone and rheediaxanthone B on normal (BJ) and cancer cells (U-118 MG and SCC-15) was estimated using two viability assays, the neutral red uptake (NR) and tetrazolium salts reduction (XTT) assays.
# (§6) Human glioblastoma cells U-118 MG (ATCC® HTB-15), human squamous carcinoma cells SCC-15 (ATCC® CRL-1623), and normal human skin fibroblasts (ATCC® CRL-2522) were grown, their morphology checked, and number and viability estimated as earlier presented.
# as §4
# [9] = Cytotoxicity, neutral red uptake (NR) assay; format: cell-based, human; conditions: human, BJ normal skin fibroblasts; NR assay, 40 µM, 48 h, fibroblasts
# Method: as §5, §6, §4
# T1 sequence (P07607 whole entry): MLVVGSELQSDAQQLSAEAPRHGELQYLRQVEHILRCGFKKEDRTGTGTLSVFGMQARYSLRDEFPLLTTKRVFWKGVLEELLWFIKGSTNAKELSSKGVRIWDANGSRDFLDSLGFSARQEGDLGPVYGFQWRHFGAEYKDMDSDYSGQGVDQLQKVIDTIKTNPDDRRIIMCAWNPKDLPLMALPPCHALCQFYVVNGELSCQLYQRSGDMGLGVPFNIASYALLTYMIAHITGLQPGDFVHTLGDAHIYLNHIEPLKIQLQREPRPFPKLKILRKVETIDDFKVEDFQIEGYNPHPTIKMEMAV
compound,measurement,setting,value
"C=CC(C)(C)c1c(O)cc2oc3c(O)c(O)cc(CC=C(C)C)c3c(=O)c2c1O [Alvaxanthone (15), Alvaxanthone]",remaining activity at 10 µM,[1]; compound 10 µM,79%
same,remaining activity at 100 µM,"[1]; compound 100 µM, read-out: % Remaining Activity",40%
same,IC50,"[2]; 20 µM dUMP and 50 µM meTHF, mean ± S.E.M. (N=3) for alvaxanthone, rheediaxanthone B not repeated, read-out: IC50",6.3 ± 1.6 µM
same,IC50,"[2]; 20 µM dUMP, 250 µM meTHF, read-out: IC50 Assessment",< 10 µM
same,remaining activity at 10 µM,"[2]; compound 10 µM, 20 µM dUMP, 250 µM meTHF",39%
same,IC50,[3],25 µM
same,concentration at which reduction of adhesion is significant/apparent,[4],40 µM
same,concentration at which reduction of adhesion is significant/apparent,[5],20 µM
same,concentration at which reduction of adhesion is significant/apparent,[6],20 µM
same,IC50,[7],22 µM
same,IC50,[8],15.8 µM
same,"viability at 48 h, 40 µM",[9],35%
